From patent US20230053688A1, “METHODS TO ALTER LATENCY IN EBV+ MALIGNANCIES” (Cornell University, priority 2020, published 2023)
Structures can show the parent of a compound that is named as a salt. Where two headings read alike, the source gives them in different places.

Tested on: LMP1 expression in Kem I cells
Assay: microbe, parasite or virus in culture
Assay type: cell-based, EBV
Details: for Average LMP1 Fold Increase / Replicate 1-LMP1 Fold Increase / Replicate 2-LMP1 Fold Increase: Kem I cells, 48 hours; for fold induction at 2.5 µM: human gammaherpesvirus 4, 48 h
[1] = 2.5 uM, fold change in LMP1 transcript vs vehicle
[2] = dose 2.5 uM, LMP1 transcript by in-well qRT-PCR, average of the two replicates
[3] = dose 2.5 uM, LMP1 transcript by in-well qRT-PCR, screen replicate 1
[4] = dose 2.5 uM, LMP1 transcript by in-well qRT-PCR, screen replicate 2
[5] = read-out: Average LMP1 Fold Increase, Kem I cells, dose 2.5 uM, 48 hours, LMP1 transcript by in-well qRT-PCR, average of the two replicates
[6] = read-out: Replicate 1-LMP1 Fold Increase, Kem I cells, dose 2.5 uM, 48 hours, LMP1 transcript by in-well qRT-PCR, screen replicate 1
[7] = read-out: Replicate 2-LMP1 Fold Increase, Kem I cells, dose 2.5 uM, 48 hours, LMP1 transcript by in-well qRT-PCR, screen replicate 2

Compound | Average LMP1 Fold Increase [2] | Replicate 1-LMP1 Fold Increase [3] | Replicate 2-LMP1 Fold Increase [4] | fold induction at 2.5 µM [5] | fold induction at 2.5 µM [6] | fold induction at 2.5 µM [7] | further results
Cc1cn([C@H]2C=C[C@@H](CO)O2)c(=O)[nH]c1=O [Stavudine (d4T)] |  |  |  |  |  |  | Average LMP1 Fold Increase (2.5 uM, average of replicates 1 and 2): 0.73; Replicate 1-LMP1 Fold Increase [1]: 0.83; Replicate 2-LMP1 Fold Increase [1]: 0.63
Cc1ccc(-n2nccn2)c(C(=O)N2CCN(c3nc4cc(Cl)ccc4o3)CC[C@H]2C)c1 [Suvorexant (MK-4305)] | 1.47 fold | 0.37 fold | 2.57 fold |  |  |  | 
O=C(Nc1ccncc1)c1cc([N+](=O)[O-])ccc1Cl [T0070907] | 0.56 fold | 0.63 fold | 0.50 fold |  |  |  | 
O=S(=O)(c1ccccc1)N(CC(F)(F)F)c1ccc(C(O)(C(F)(F)F)C(F)(F)F)cc1 [T0901317] |  |  |  | 0.44 | 0.41 | 0.47 | 
CNC(=O)c1ccccc1Nc1nc(Nc2ccc(N3CCOCC3)cc2OC)ncc1Cl [TAE226 (NVP-TAE226)] | 1.35 fold | 1.38 fold | 1.31 fold |  |  |  | 
CNC(=O)c1ccc2cc([C@@]3(O)CCn4cncc43)ccc2c1 [TAK-700 (Orteronel)] | 0.90 fold | 0.75 fold | 1.06 fold |  |  |  | 
Cc1cc(OCCCS(C)(=O)=O)cc(C)c1-c1cccc(COc2ccc3c(c2)OC[C@H]3CC(=O)O)c1 [TAK-875] |  |  |  | 0.57 | 0.55 | 0.59 | 
O=C1CC(=O)c2c(Cl)c(Cl)c(Cl)c(Cl)c21 [TCID] | 0.52 fold | 0.66 fold | 0.38 fold |  |  |  | 
COc1ccc(C(=O)Nc2sc3c(c2C(N)=O)CCCC3)cc1OC [TCS 359] | 0.40 fold | 0.62 fold | 0.19 fold |  |  |  | 
Nc1nc(N)c2nc(-c3cccc(O)c3)c(-c3cccc(O)c3)nc2n1 [TG100-115] | 0.53 fold | 0.33 fold | 0.73 fold |  |  |  | 
NC(=O)Nc1sc(-c2ccc(F)cc2)cc1C(N)=O [TPCA-1] | 0.48 fold | 0.59 fold | 0.36 fold |  |  |  | 
Nc1cccc(-c2cc3c(Oc4cccc(O)c4)ncnc3[nH]2)c1 [TWS119] | 0.56 fold | 0.62 fold | 0.49 fold |  |  |  | 
CN1CC(=O)N2[C@H](c3ccc4c(c3)OCO4)c3[nH]c4ccccc4c3C[C@@H]2C1=O [Tadalafil] |  |  |  | 3.06 | 3.8 | 2.32 | 
COc1cc2c(N3CCN(C(=O)Nc4ccc(OC(C)C)cc4)CC3)ncnc2cc1OCCCN1CCCCC1 [Tandutinib (MLN518)] | 0.31 fold | 0.21 fold | 0.41 fold |  |  |  | 
COc1cc2c(cc1OC)CN(CCc1ccc(NC(=O)c3cc(OC)c(OC)cc3NC(=O)c3cnc4ccccc4c3)cc1)CC2 [Tariquidar] |  |  |  | 0.71 | 0.56 | 0.87 | 
CCCc1nc2c(C)cc(-c3nc4ccccc4n3C)cc2n1Cc1ccc(-c2ccccc2C(=O)O)cc1 [Telmisartan] |  |  |  | 0.37 | 0.29 | 0.45 | 
CO[C@H]1C[C@@H]2CC[C@@H](C)[C@@](O)(O2)C(=O)C(=O)N2CCCC[C@H]2C(=O)O[C@H]([C@H](C)C[C@@H]2CC[C@@H](OC(=O)C(C)(CO)CO)[C@H](OC)C2)CC(=O)[C@H](C)/C=C(\C)[C@@H](O)[C@@H](OC)C(=O)[C@H](C)C[C@H](C)/C=C/C=C/C=C/1C [Temsirolimus (CCI-779, NSC 683864)] | 155.77 fold | 1.06 fold | 310.48 fold |  |  |  | 
CC(C)OC(=O)OCOP(=O)(CO[C@H](C)Cn1cnc2c(N)ncnc21)OCOC(=O)OC(C)C [Tenofovir Disoproxil Fumarate] |  |  |  | 0.56 | 0.21 | 0.9 | 

Compound | Average LMP1 Fold Increase [2] | Replicate 1-LMP1 Fold Increase [3] | Replicate 2-LMP1 Fold Increase [4] | fold induction at 2.5 µM [5] | fold induction at 2.5 µM [6] | fold induction at 2.5 µM [7] | further results
C[C@H](Cn1cnc2c(N)ncnc21)OCP(=O)(O)O [Tenofovir] | 0.18 fold | 0.18 fold | 0.19 fold |  |  |  | 
CN(C)CCCCC(=O)Nc1ccc(NC(=S)NC(=O)c2ccc(C(C)(C)C)cc2)cc1 [Tenovin-6] | 1.79 fold | 1.55 fold | 2.03 fold |  |  |  | 
O=C(NCc1ccccc1)c1csc(Nc2ccncn2)n1 [Thiazovivin] | 1.05 fold | 1.05 fold | 1.04 fold |  |  |  | 
CCCSc1nc(N[C@@H]2C[C@H]2c2ccc(F)c(F)c2)c2nnn([C@@H]3C[C@H](OCCO)[C@@H](O)[C@H]3O)c2n1 [Ticagrelor] |  |  |  | 0.66 | 0.61 | 0.7 | 
Clc1ccccc1CN1CCc2sccc2C1 [Ticlopidine HCl] |  |  |  | 1.15 | 0.52 | 1.78 | 
COc1ccc2cc(-c3nc(-c4ccc([S+](C)[O-])cc4)[nH]c3-c3ccncc3)ccc2c1 (stereo not drawn) [Tie2 kinase inhibitor] | 1.08 fold | 0.36 fold | 1.81 fold |  |  |  | 
O=c1oc2cc(O)ccc2s1 [Tioxolone] |  |  |  | 0.55 | 0.7 | 0.41 | 
C[C@@H]1CCN(C(=O)CC#N)C[C@@H]1N(C)c1ncnc2[nH]ccc12 [Tofacitinib (CP-690550,Tasocitinib)] | 0.46 fold | 0.09 fold | 0.82 fold |  |  |  | 
c1ccc(CC2=NCCN2)cc1 [Tolazoline HCl] |  |  |  | 0.26 | 0.26 | 0.27 | 
Cc1c(Cl)cccc1Nc1ccccc1C(=O)O [Tolfenamic Acid] |  |  |  | 0.15 | 0.11 | 0.2 | 
Cc1ccccc1C(=O)Nc1ccc(C(=O)N2CCCC(O)c3cc(Cl)ccc32)c(C)c1 (stereo not drawn) [Tolvaptan] |  |  |  | 4.67 | 1.11 | 8.24 | 
CCOC(=O)N1c2ccc(C(F)(F)F)cc2[C@@H](N(Cc2cc(C(F)(F)F)cc(C(F)(F)F)c2)C(=O)OC)C[C@H]1CC [Torcetrapib] |  |  |  | 0.5 | 0.4 | 0.6 | 
CN(C)CCOc1ccc(/C(=C(/CCCl)c2ccccc2)c2ccccc2)cc1 [Toremifene Citrate] |  |  |  | 0.54 | 0.55 | 0.54 | 
CC(C)C[C@@H](C(=O)N[C@H](C(=O)OC1CCCC1)c1ccccc1)[C@H](O)C(=O)NO [Tosedostat (CHR2797)] | 0.64 fold | 0.56 fold | 0.72 fold |  |  |  | 
Cn1c(=O)cc(N2CCC[C@@H](N)C2)n(Cc2cc(F)ccc2C#N)c1=O [Trelagliptin] |  |  |  | 0.63 | 0.96 | 0.31 | 
Nc1nc(N)c2nc(-c3ccccc3)c(N)nc2n1 [Triamterene] |  |  |  | 0.91 | 0.56 | 1.26 | 
CC(/C=C/C(=O)NO)=C\[C@@H](C)C(=O)c1ccc(N(C)C)cc1 [Trichostatin A (TSA)] | 88.29 fold | 44.18 fold | 132.40 fold |  |  |  | 
CCC(COC(=O)c1cc(OC)c(OC)c(OC)c1)(c1ccccc1)N(C)C (stereo not drawn) [Trimebutine] |  |  |  | 1.37 | 2.11 | 0.63 | 
